Reference: paper PMC10175918 (Communications Biology, 2023)
Where two headings read alike, the source gives them in different places.

Legend:
Test in all cases: TGFα-shedding assay-based GPCR screening with chimeric Gα subunit proteins
Format in all cases: cell-based
348 GPCRs [1] = molecular target: 348 GPCRs (Homo sapiens, UniProt P28223); conditions: 10µM, Favipiravir 100μM
348 GPCRs [2] = molecular target: T1, 348 GPCRs (Homo sapiens, UniProt P48146); conditions: 10µM, Favipiravir 100μM
T1 construct: expressed in transfected cells; host or cells: HEK293A
T1 sequence (P48146 whole entry): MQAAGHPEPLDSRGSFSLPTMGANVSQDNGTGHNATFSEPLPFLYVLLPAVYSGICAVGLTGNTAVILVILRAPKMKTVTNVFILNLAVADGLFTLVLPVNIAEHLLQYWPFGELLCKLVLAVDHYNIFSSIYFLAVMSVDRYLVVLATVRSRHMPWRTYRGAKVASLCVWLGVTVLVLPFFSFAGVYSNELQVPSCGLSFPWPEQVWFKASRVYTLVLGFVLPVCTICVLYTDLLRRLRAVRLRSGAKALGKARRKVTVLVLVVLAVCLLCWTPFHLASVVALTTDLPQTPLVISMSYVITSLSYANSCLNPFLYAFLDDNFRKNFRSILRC

348 GPCRs [3] = molecular target: T2, 348 GPCRs (Homo sapiens, UniProt P47804); conditions: 10µM, Favipiravir 100μM
T2 construct: expressed in transfected cells; host or cells: HEK293A
T2 sequence (P47804 1-291): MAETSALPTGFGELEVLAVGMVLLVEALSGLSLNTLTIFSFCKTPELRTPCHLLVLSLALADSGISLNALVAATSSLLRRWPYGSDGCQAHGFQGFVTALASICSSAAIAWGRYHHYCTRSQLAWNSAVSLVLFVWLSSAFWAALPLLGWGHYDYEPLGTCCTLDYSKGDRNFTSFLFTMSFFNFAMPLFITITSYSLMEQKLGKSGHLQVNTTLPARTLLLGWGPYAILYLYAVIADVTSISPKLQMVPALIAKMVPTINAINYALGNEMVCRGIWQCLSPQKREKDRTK

348 GPCRs [4] = molecular target: T3, 348 GPCRs (Homo sapiens, UniProt Q8TDV0); conditions: 10µM, Favipiravir 100μM
T3 construct: expressed in transfected cells; host or cells: HEK293A
T3 sequence (Q8TDV0 1-419): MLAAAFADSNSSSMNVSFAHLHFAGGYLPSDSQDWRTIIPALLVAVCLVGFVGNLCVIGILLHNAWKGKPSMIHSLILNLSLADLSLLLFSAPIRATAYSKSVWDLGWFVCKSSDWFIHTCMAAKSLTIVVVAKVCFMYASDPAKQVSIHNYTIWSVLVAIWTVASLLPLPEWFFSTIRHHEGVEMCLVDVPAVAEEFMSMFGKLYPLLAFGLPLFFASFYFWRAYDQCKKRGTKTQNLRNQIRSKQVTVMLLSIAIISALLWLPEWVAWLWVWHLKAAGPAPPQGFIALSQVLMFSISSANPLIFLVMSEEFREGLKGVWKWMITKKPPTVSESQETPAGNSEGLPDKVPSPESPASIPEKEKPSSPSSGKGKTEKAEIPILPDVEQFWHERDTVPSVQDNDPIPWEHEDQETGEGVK

348 GPCRs [5] = molecular target: T4, 348 GPCRs (Homo sapiens, UniProt Q96AM1); conditions: 10µM, Favipiravir 100μM
T4 construct: expressed in transfected cells; host or cells: HEK293A
T4 sequence (Q96AM1 whole entry): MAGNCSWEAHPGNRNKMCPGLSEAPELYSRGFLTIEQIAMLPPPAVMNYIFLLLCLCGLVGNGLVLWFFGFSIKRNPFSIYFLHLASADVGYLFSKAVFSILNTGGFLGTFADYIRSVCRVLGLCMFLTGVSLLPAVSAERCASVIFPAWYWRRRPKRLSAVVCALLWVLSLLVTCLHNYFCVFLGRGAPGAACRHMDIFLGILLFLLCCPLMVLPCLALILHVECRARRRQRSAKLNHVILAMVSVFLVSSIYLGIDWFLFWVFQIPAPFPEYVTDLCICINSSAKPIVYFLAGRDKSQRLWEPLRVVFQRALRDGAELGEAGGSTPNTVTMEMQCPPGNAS

348 GPCRs [6] = molecular target: T5, 348 GPCRs (Homo sapiens, UniProt Q14416); conditions: 10µM, Favipiravir 100μM
T5 construct: expressed in transfected cells; host or cells: HEK293A
T5 sequence (Q14416 19-872): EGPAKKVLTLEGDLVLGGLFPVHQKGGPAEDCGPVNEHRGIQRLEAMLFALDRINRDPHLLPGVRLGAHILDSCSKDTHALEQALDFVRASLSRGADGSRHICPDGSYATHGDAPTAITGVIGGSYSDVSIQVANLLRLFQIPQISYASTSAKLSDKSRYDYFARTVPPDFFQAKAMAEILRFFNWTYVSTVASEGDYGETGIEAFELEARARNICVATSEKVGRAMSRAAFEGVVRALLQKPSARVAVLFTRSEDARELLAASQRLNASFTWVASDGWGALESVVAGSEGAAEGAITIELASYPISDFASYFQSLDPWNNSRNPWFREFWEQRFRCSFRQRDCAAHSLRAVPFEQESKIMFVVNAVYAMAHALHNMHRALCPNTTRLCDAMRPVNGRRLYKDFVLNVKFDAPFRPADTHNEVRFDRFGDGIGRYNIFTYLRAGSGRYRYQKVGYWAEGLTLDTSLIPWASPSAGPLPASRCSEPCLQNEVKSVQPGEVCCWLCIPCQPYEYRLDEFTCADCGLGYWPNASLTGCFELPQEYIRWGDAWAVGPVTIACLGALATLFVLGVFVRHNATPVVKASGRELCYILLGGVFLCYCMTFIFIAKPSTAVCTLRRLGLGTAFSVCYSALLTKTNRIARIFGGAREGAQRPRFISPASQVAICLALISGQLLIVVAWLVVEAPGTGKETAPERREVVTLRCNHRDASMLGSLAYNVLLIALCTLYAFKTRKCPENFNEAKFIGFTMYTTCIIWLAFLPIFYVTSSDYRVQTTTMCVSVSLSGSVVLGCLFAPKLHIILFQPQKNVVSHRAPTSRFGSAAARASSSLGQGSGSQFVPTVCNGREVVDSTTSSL

348 GPCRs [7] = molecular target: T6, 348 GPCRs (Homo sapiens, UniProt P41180); conditions: 10µM, Favipiravir 100μM
T6 construct: expressed in transfected cells; host or cells: HEK293A
T6 sequence (P41180 20-1078): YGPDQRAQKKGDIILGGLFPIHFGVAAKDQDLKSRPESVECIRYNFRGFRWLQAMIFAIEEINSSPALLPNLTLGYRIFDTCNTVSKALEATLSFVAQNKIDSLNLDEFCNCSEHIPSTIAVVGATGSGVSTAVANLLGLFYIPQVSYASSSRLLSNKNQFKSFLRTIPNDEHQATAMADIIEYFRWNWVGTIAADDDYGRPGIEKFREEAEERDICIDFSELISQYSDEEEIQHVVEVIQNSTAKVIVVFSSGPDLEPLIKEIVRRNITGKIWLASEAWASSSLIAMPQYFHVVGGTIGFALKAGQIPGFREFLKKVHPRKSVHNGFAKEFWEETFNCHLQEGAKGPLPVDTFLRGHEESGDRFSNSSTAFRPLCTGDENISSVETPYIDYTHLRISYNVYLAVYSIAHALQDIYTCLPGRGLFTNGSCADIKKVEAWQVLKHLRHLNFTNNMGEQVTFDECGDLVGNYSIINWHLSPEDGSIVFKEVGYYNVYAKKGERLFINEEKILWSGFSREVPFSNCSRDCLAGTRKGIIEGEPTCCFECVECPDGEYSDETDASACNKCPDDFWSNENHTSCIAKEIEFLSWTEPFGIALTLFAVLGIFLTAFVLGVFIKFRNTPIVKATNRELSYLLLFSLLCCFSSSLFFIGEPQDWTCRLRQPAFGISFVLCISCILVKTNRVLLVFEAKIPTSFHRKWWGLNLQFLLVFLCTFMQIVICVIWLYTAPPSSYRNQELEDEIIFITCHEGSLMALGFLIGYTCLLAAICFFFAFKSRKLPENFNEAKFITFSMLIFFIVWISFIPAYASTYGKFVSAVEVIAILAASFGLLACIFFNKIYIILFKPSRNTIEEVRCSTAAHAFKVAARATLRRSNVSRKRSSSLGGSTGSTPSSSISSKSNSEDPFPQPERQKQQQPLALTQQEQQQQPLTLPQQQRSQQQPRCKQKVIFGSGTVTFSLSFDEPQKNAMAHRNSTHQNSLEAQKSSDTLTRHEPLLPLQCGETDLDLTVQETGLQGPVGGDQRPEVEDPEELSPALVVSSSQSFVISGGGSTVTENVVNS

348 GPCRs [8] = molecular target: T7, 348 GPCRs (Homo sapiens, UniProt Q9H244)
T7 construct: expressed in transfected cells; host or cells: HEK293A
T7 sequence (Q9H244 whole entry): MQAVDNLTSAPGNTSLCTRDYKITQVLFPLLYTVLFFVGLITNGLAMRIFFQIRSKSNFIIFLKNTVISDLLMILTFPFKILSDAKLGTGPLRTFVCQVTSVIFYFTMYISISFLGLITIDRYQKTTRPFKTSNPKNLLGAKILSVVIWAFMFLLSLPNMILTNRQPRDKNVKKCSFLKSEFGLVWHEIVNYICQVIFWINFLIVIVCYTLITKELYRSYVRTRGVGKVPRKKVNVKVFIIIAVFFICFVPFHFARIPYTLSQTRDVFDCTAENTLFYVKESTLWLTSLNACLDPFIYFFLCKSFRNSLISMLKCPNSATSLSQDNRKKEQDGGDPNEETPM

[9] = 5-HT2A (5-hydroxytryptamine receptor 2A), read-out: % GPCR activation compared to TPA
[10] = NPBWR2 (neuropeptides B and W receptor 2), read-out: % GPCR activation compared to TPA
[11] = RGR (Retinal G protein coupled receptor), read-out: % GPCR activation compared to TPA
[12] = GPR151 (G Protein-Coupled Receptor 151), read-out: % GPCR activation compared to TPA
[13] = MRGF (MAS-related GPR, member F), read-out: % GPCR activation compared to TPA
[14] = MRGPRF (MAS-related GPR, member F), read-out: % GPCR activation compared to TPA
[15] = GRM2 (glutamate metabotropic receptor 2), read-out: % GPCR activation compared to TPA
[16] = CASR (calcium sensing receptor), read-out: % GPCR activation compared to TPA
[17] = GPCR P2Y12 (purinergic receptor P2Y, G-protein coupled, 12), read-out: % GPCR activation compared to TPA
[18] = read-out: % GPCR activation compared to TPA, 5-HT2A (5-hydroxytryptamine receptor 2A)
[19] = read-out: % GPCR activation compared to TPA, NPBWR2 (neuropeptides B and W receptor 2)
[20] = read-out: % GPCR activation compared to TPA, RGR (Retinal G protein coupled receptor)
[21] = read-out: % GPCR activation compared to TPA, GPR151 (G Protein-Coupled Receptor 151)
[22] = read-out: % GPCR activation compared to TPA, MRGF (MAS-related GPR, member F)
[23] = read-out: % GPCR activation compared to TPA, MRGPRF (MAS-related GPR, member F)
[24] = read-out: % GPCR activation compared to TPA, GRM2 (glutamate metabotropic receptor 2)
[25] = read-out: % GPCR activation compared to TPA, CASR (calcium sensing receptor)
[26] = read-out: % GPCR activation compared to TPA, GPCR P2Y12 (purinergic receptor P2Y, G-protein coupled, 12)

Chain of 348 GPCRs (Homo sapiens, UniProt P28223) (P28223 whole entry): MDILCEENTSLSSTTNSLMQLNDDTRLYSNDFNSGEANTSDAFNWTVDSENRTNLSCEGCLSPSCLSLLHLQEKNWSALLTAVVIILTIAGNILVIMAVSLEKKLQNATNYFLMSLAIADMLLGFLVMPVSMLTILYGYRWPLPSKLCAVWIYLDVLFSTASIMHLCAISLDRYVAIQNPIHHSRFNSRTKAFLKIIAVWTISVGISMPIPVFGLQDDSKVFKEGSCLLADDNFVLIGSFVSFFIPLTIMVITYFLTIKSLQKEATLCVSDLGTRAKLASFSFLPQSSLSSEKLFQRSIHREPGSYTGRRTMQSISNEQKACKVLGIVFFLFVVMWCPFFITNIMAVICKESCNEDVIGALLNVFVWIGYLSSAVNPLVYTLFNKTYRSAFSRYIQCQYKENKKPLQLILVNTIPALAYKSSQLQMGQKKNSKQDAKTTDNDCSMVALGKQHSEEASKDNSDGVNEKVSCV

SMILES	activation at 100 µM (348 GPCRs [1]; [9])	activation at 10 µM (348 GPCRs [2]; [10])	activation at 100 µM (348 GPCRs [3]; [11])	activation at 10 µM (348 GPCRs [4]; [12])	activation at 100 µM (348 GPCRs [5]; [13])	activation at 100 µM (348 GPCRs [5]; [14])	activation at 10 µM (348 GPCRs [6]; [15])	activation at 100 µM (348 GPCRs [7]; [16])	activation at 10 µM (348 GPCRs [8]; [17])	activation at 100 µM (348 GPCRs [8]; GPCR P2Y12 (purinergic receptor P2Y, G-protein coupled, 12), 100μM, read-out: % GPCR activation compared to TPA)	activation at 100 µM (348 GPCRs [1]; [18])	activation at 10 µM (348 GPCRs [2]; [19])	activation at 100 µM (348 GPCRs [3]; [20])	activation at 10 µM (348 GPCRs [4]; [21])	activation at 100 µM (348 GPCRs [5]; [22])	activation at 100 µM (348 GPCRs [5]; [23])	activation at 10 µM (348 GPCRs [6]; [24])	activation at 100 µM (348 GPCRs [7]; [25])	activation at 10 µM (348 GPCRs [8]; [26])
CCC(CC)COC(=O)[C@H](C)N[P@](=O)(OC[C@H]1O[C@@](C#N)(c2ccc3c(N)ncnn23)[C@H](O)[C@@H]1O)Oc1ccccc1 [remdesivir]	–	–	–	–	–	–	–	–	–	–	4.22%	-4.48%	-0.554%	-3.65%	0.574%	-0.326%	1.1%	4.48%	0.718%
CC(C)OC(=O)[C@H](C)N[P@](=O)(OC[C@H]1O[C@@H](n2ccc(=O)[nH]c2=O)[C@](C)(F)[C@@H]1O)Oc1ccccc1 [sofosbuvir]	–	–	–	–	–	–	–	–	–	–	-1.66%	-2.75%	-3.06%	-2.06%	-2.71%	-0.0367%	-2.27%	-3.31%	-2.59%

The next lines start with results.

activation at 100 µM (348 GPCRs [1]; [9])	activation at 10 µM (348 GPCRs [2]; [10])	activation at 100 µM (348 GPCRs [3]; [11])	activation at 10 µM (348 GPCRs [4]; [12])	activation at 100 µM (348 GPCRs [5]; [13])	activation at 100 µM (348 GPCRs [5]; [14])	activation at 10 µM (348 GPCRs [6]; [15])	activation at 100 µM (348 GPCRs [7]; [16])	activation at 10 µM (348 GPCRs [8]; [17])	activation at 100 µM (348 GPCRs [8]; GPCR P2Y12 (purinergic receptor P2Y, G-protein coupled, 12), 100μM, read-out: % GPCR activation compared to TPA)	SMILES	activation at 100 µM (348 GPCRs [1]; [18])	activation at 10 µM (348 GPCRs [2]; [19])	activation at 100 µM (348 GPCRs [3]; [20])	activation at 10 µM (348 GPCRs [4]; [21])	activation at 100 µM (348 GPCRs [5]; [22])	activation at 100 µM (348 GPCRs [5]; [23])	activation at 10 µM (348 GPCRs [6]; [24])	activation at 100 µM (348 GPCRs [7]; [25])	activation at 10 µM (348 GPCRs [8]; [26])
-1.21%	-1.66%	-2.11%	-2.28%	4.76%	-0.751%	0.673%	1.55%	-4.31%	–	N#C[C@@]1(c2ccc3c(N)ncnn23)O[C@H](CO)[C@@H](O)[C@H]1O [GS441524]	–	–	–	–	–	–	–	–	–
2.2%	-4.53%	-1.43%	-0.974%	0.745%	-1.13%	-0.721%	0.748%	–	-4.09%	NC(=O)c1nc(F)cnc1O [favipiravir, 6-fluoro-3-hydroxy-2-pyrazinecarboxamide]	–	–	–	–	–	–	–	–	–
-0.697%	-2.92%	-1.3%	-2.68%	-3.54%	-0.471%	0.98%	-0.137%	-6.75%	–	CC(C)C(=O)OC[C@H]1O[C@@H](n2ccc(NO)nc2=O)[C@H](O)[C@@H]1O [molnupiravir]	–	–	–	–	–	–	–	–	–
